Results on three compounds are retold here after patent publication US7361633B2, “Screening method and anti-tumor drug candidate obtained therefrom” (Ardana Bioscience Limited, priority 2002, dated 2008).

“Also recorded” adds a separate entry of the source. Square brackets hold non-standard residues; d marks the D form. Peptide text beside a SMILES is read from it. dPhe(4-Cl) = N[C@H](Cc1ccc(Cl)cc1)C(=O)O; d2Nal = N[C@H](Cc1ccc2ccccc2c1)C(=O)O; dCit = NC(=O)NCCC[C@@H](N)C(=O)O; d3Pal = N[C@H](Cc1cccnc1)C(=O)O; pGlu = O=C1CC[C@@H](C(=O)O)N1

Assay [1] has as its system human JEG-3 choriocarcinoma cells. The assay is described as follows: Anti-proliferative effect on JEG-3 cells, viable cell count after 5 days. The class given is cell-based. As to conditions: 5 days continuous treatment, trypan blue exclusion. As for the experimental part: (§1) Low cell density JEG-3 cell subcultures were treated for 5 days continuously with the indicated doses of GnRH I (a), GnRH II (b), antagonist 135-18 (c) or antagonist 135-25 (d) added directly to Dulbecco's modified Eagles medium supplemented with 10% FCS, glutamine and penicillin/streptomycin. Ligands were replenished every 24 h. At the end of the stimulation period cells were removed from the growth plates with trypsin and mixed with trypan blue dye (enters non-viable cells). Only viable cells were therefore counted using a haemocytometer in quadruplicate for each ligand dose. The bars in each histogram represent the mean±s.e. mean of n=4 experiments.
(§2) Each cell type was plated at an initial minimal confluency (10-20%) to allow for 5 days of normal continual cell growth that would not result in 100% cell confluency by day 5. Each ligand was incubated, in triplicate for every experimental concentration, with the cell monolayers for five days with replacement of the ligand every 12 h. At the end of the stimulation period the number of viable cells was estimated by their capacity to prevent uptake of Trypan Blue stain.

For assay [2], the system named is HEK293 cells stably expressing the Type I GnRHR (SCL60). The assay is described as follows: Anti-proliferative effect on SCL60 cells, viable cell count after 5 days. The class given is cell-based, human. The following applies: 5 days continuous treatment, trypan blue exclusion. As for the experimental part: An identical methodology of measuring cell growth was employed as in FIG. 1.
as §2
We further investigated the nature of the ligand-receptor specificity of the anti-proliferative effects of GnRH receptor systems by studying our ligand panel effects upon a model cell background, i.e. SCL60 HEK293 cells stably expressing the rat Type I GnRHR. […] We attribute this greater effect of the GnRHR ligands upon the SCL60 cells to the much greater level of receptor expression in the SCL60 cells.

The subject of assay [3] is ERK1/2. The assay is described as follows: ERK1/2 phosphorylation immunoblot in JEG-3 cells. The following applies: 100 nM, 10 minutes. The class given is cell-based, human. (A western blot detects proteins with antibodies after separation by electrophoresis.)
In assay [4] the test system is ERK1/2. The assay is described as follows: ERK1/2 phosphorylation immunoblot in BPH-1 cells. The following applies: FIG. 5 panel c. The class given is cell-based, human. The source says:
The panel depicts a representative anti-phospho-ERK1/2 w-c lysate immunoblot of stimulated BPH-1 cell extracts. […] Each bar of the histogram represents the mean±s.e. mean of three to four experimental replicates. […] Panel c) depicts the extent of ERK1/2 activation in BPH-1 cells induced by stimulation with GnRH I, II, Ant 135-25 and Ant 135-18. […] Each bar of the histogram represents the mean± s.e. mean of three to four experimental replicates.

For another assay, the system named is PLC-β. Put plainly: Inositol phosphate accumulation in BPH-1 cells. The class given is cell-based, human. As for the experimental part:
BPH-1 cells were pre-incubated with ^3H-myoinositol (1 μCi/ml) for 48 h prior to ligand stimulation (60 minutes). Ligand stimulated inositol phosphate production was measured in the presence of 10 mM LiCl. […] IP accumulation can be used as a read out/marker for Gαq activation since the activation of PLCβ is PTX-resistant.

Assay [5] deals with T1, marmoset Type II GnRH receptor (Callithrix jacchus, UniProt Q95MG6).
T1 construct: expressed in transfected cells
T1 sequence (Q95MG6 1-380): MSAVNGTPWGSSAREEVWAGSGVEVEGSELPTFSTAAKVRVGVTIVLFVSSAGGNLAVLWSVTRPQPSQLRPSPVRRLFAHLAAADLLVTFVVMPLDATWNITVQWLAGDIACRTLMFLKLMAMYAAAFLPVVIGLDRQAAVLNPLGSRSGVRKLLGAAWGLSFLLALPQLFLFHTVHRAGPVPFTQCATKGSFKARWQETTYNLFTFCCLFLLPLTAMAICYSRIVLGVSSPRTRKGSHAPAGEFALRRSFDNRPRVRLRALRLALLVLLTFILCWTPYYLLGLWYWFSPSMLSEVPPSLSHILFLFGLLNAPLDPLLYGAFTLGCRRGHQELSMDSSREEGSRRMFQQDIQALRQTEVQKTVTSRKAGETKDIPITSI
Put plainly: Inositol phosphate accumulation in αT4-II cells. Type of assay: cell-based. The following applies: GnRH II 10 nM. As for the experimental part: The histograms in panels a and b represent inositol phosphate accumulation data from HEK293 cells stably expressing the Type I GnRH receptor only (SCL60). […] In panels c and d, the liberated inositol phosphates generated were measured in the proto-gonadotrope cells (αT4) stably expressing the marmoset Type II GnRH receptor (designated αT4-II).
The ability of the four major agents under study at activating ectopically expressed Type I or Type II GnRHR were tested (FIG. 12). The classical signal transduction cascade activated by GnRHR stimulation is the Gαq-PLC-β cascade. Both Type I and II receptor can stimulate the Gαq-PLC type-G-protein and activate PLC-β which cleaves phosphatidylinositol bisphosphate (PIP2) into inositol trisphosphate (IP3), other lower inositol phosphates (IPn) and diacylglycerol (DAG). The major function of IP3 is to elevate intracellular Ca^2+ while DAG causes the activation of specific PKC (protein kinase C) isoforms.
Panels a and b of FIG. 12 depict the generation of free cytoplasmic ^3H-myo-inositols on the plasma membranes of HEK293 cells expressing the Type I GnRHR and of αT4 gonadotropes expressing the marmoset Type II GnRHR. Prior to agonist stimulation the respective cells were incubated in inositol-free growth media supplemented with 1 μCi/ml ^3H-myoinositol for 48 h. G protein coupled receptor (GPCR)-induced activation of PLC-β results in the cleavage of PIP2 (incorporating tritium ^3H) into free lower inositol phosphates (IPns).

The subject of assay [6] is human benign prostate hyperplastic (BPH-1) cells. Put plainly: Anti-proliferative effect on BPH-1 cells, viable cell count after 5 days. As to conditions: 5 days continuous treatment, trypan blue exclusion. The class given is cell-based. As for the experimental part: as §1, with “density BPH-1” for “density JEG-3”, “(b), Ant” for “(b), antagonist”, “or Ant” for “or antagonist”, “to RPMI 1640” for “to Dulbecco's modified Eagles”, “removed form” for “removed from”, “plates by” for “plates with”
as §2
Employing an identical growth and stimulation methodology to that described in the previous paragraph and in FIG. 1 we exposed the hyperplastic cell line, BPH-1, to the same panel of GnRH ligands and antagonistic analogues (FIG. 2). Reminiscent of FIG. 1 both endogenous GnRH agonists exert a similar mode of action with respect to their dose-dependent inhibition of BPH-1 cell growth over the five day stimulation period.

In assay [7] the test system is PTX-sensitive/Gαi-dependent MAPK isoform activation. Put plainly: PTX-sensitive/Gαi-dependent MAPK isoform activation (data not shown). The class given is cell-based.
The test system of assay [8] is androgen-resistant tumor cells. The following applies: compared with androgen-dependent prostate cancers; Jungwirth et al; cited from earlier work.

Regarding “GnRH II: A second form of GnRH, identified in the mid-brain of many vertebrates ([pGlu]HWSHGWYPG-NH2; ends and bridges not checked; UniProt O43555 24-33, looked up)”, the “anti-proliferative effect (viable cell number)” value was “potent and dose-dependent anti-proliferative effect; also recorded: clear dose-response relationships for the inhibition of cellular growth” in assay [1]; “greater anti-proliferative efficacy; also recorded: less potent than GnRH I at arresting the SCL60 cell growth” in assay [2]. For the same compound, the “extent of ERK1/2 phosphorylation (activation)” value in the assay on ERK1/2 [3] is reported as “less effective”. For the same compound, the “extent of ERK1/2 activation” value in the assay on ERK1/2 [4] is reported as “A similar pattern to JEG-3 of ligand activation”. Moreover, the inositol phosphate accumulation result in the assay on PLC-β (60 minutes, 10 mM LiCl, doses up to 50 μM) is “poor activity; also recorded: small capacity to induce inositol phosphate accumulation”. For the same compound, in assay [5], the “agonistic activity: liberated inositol phosphates at marmoset Type II GnRH receptor” value is reported as “yields an increase in free tritiated inositol phosphates; also recorded: results in a similar action to GnRH I upon the SCL60 cells”.
In the case of lysophosohatidic acid [LPA], the “anti-proliferative effect (viable cell number)” value in assay [1] and in assay [6] was “failed to significantly attenuate the cell growth” throughout. The “effect of pertussis toxin pre-incubation on induced inositol phosphate accumulation” value in the assay with PLC-β (PTX 200 ng/ml 16 h, GnRH I 50 μM) is on record as “insensitive to PTX pre-incubation; also recorded: completely insensitive to the pertussis toxin”.
In the case of `CC(=O)N[C@H](Cc1ccc2ccccc2c1)C(=O)N[C@H](Cc1ccc(Cl)cc1)C(=O)N[C@H](Cc1cccnc1)C(=O)N[C@@H](CO)C(=O)N[C@@H](Cc1ccc(O)cc1)C(=O)N[C@H](CCCNC(N)=O)C(=O)N[C@@H](CC(C)C)C(=O)N[C@@H](CCCNC(=N)N)C(=O)N1CCC[C@H]1C(=O)N[C@H](C)C(N)=O` [Cetrorelix] (Ac-[d2Nal][dPhe(4-Cl)][d3Pal]SY[dCit]LRP[dA]-NH2), the “potency at stimulating PTX-sensitive/Gαi-dependent MAPK isoform activation” value in assay [7] was “significantly less potent than Ant 135-25”. Further, the “doses required to attenuate growth of androgen-resistant tumor cells” value in assay [8] is “considerably higher doses”.
